Source: US7169567B1, “Screening assay utilizing the PTH receptor” (The General Hospital Corporation, priority 1998, dated 2007)
“Also recorded” adds a separate entry of the source. Where no end group is shown, it is not given here.

Legend:
Format in all cases: cell-based
[1] = biological target: T1, rat secretin receptor (Rattus norvegicus, UniProt P23811); assay: cAMP response in COS-7 cells transfected with the rat secretin receptor; conditions: PTH(1–14) 100 mM
T1 construct: expressed in transfected cells; host or cells: COS-7, transient
Method: FIG. 6. Specificity of the Truncated Ligand and PTH Receptor. COS-7 cells transiently transfected with either rWT-HA (A), rΔNt (B), or the intact rat secretin receptor (C), were treated with the indicated peptides for 60 min at 22° C., and the resulting intracellular cAMP levels were quantified by RIA. […] 1 mM and secretin(1–13), 100 mM. Shown are data (mean±s.e.m.) from one experiment performed in duplicate, and this was repeated twice more with equivalent results.
(§1) Intracellular cyclic AMP: Transfected COS-7 or HKRK-B7 cells were rinsed with 500 ml of binding buffer, (50 mM Tris-HCl, pH 7.7, 100 mM NaCl, 5 mM KCl, 2 mM CaC12, 5% heat-inactivated horse serum, 0.5% heat-inactivated fetal bovine serum) and 200 ml of IBMX buffer (DMEM containing 2 mM IBMX, 1 mg/ml bovine serum albumin, 35 mM Hepes-NaOH, pH 7.4) and […] of binding buffer or binding buffer containing various amounts of peptide were added. The plates were incubated for 60 minutes at room temperature. The buffer was then withdrawn and the cells were frozen on dry ice, treated with 0.5 ml of 50 mM HCl, and refrozen. After the thawing, the lysate was diluted 30-fold in dH20 and an aliquot was analyzed for cAMP content by determined radioimmunoassay using unlabeled cAMP as a standard.
In order to test whether PTH(1–14) and rΔNt retained the appropriate recognition specificity for the corresponding parent ligand, cross-reactivity experiments were done using secretin ligands and the cloned rat secretin receptor. […] Cells expressing rΔNt responded to PTH(1–34) and PTH(1–14) but not to secretin(1–27) (1 mM) or secretin(1–13) ([…]) (FIG. 5B). Thus, the recognition specificity of PTH(1–14) and rΔNt appear to replicate that of the intact parent molecules. No evidence for relaxed specificity was detected in these studies (FIG. 6).

[2] = biological target: T2, truncated rat PTH-1 receptor (rΔNt) (Rattus norvegicus, UniProt P25961, E586G); assay: cAMP response in COS-7 cells transiently transfected with truncated rat PTH-1 receptor (rΔNt); conditions: for cAMP response of cells expressing rΔNt (in words): secretin(1–27) 1 mM
T2 construct: contains an open reading frame encoding a protein of about 435 amino acid residues; expressed in transfected cells; host or cells: COS-7, transient (DEAE-dextran), pCDNA-1 based plasmid
T2 sequence (P25961 with tags, fused parts or gaps E586G): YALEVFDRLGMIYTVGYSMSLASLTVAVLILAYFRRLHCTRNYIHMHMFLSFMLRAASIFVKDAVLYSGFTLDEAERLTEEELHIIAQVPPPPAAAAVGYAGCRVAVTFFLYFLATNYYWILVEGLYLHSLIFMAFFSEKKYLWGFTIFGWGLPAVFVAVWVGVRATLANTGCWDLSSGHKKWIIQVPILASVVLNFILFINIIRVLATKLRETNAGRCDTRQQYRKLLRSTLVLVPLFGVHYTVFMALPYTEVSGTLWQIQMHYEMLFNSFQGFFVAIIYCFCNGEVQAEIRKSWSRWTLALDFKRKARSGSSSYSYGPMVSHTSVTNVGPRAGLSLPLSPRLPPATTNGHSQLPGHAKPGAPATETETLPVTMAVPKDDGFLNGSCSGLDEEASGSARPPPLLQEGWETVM
Source text: (§2) FIG. 4. PTH Responses of Intact and Truncated PTH-1 Receptors in COS-7 Cells. Shown at the top are schematics of the intact (A) and truncated (B) rat PTH-1 receptors used for transient transfection of COS-7 cells, and subsequent cAMP response assays. The conserved extracellular cysteine residues are depicted as open circles and numbered according to sequence position, and the nine amino acids of the epitope tag (HA) in rWT-HA are shaded. The tics at residue 26 and 181 indicate the endpoints of the deletion in rΔNt. Based on the predicted signal peptide cleavage site at Ala-22, residues 23–25 in rΔNt are joined to residue 182. The cAMP responses of COS-7 cells expressing the intact receptor (C) and rΔNt (D) to rPTH(1–34) (J) or rPTH(1–14) (C) are also shown. The graphs show combined data (mean±s.e.m.) from five separate experiments, each performed in duplicate. […]
(§3) FIG. 6. Specificity of the Truncated Ligand and PTH Receptor. COS-7 cells transiently transfected with either rWT-HA (A), rΔNt (B), or the intact rat secretin receptor (C), were treated with the indicated peptides for 60 min at 22° C., and the resulting intracellular cAMP levels were quantified by RIA. Concentration of peptides present during the incubations were: rPTH(1–34), 0.1 mM; rPTH(1–14) 100 mM; secretin(1–27). […] Shown are data (mean±s.e.m.) from one experiment performed in duplicate, and this was repeated twice more with equivalent results.
(§4) For studies with the intact and truncated rat PTH-1 receptors, transient transfections of COS-7 cells were performed using DEAE-dextran as described previously (Bergwitz, C., et al., J. Biol. Chem. 272:28861–28868)). The construction and initial characterization of the pCDNA-1 based plasmids encodin either the intact or truncated rat PTH-1 receptor has been described previously (Lee, C., et al., Endocrinology 135(4):1488–1495)). […] The truncated rat PTH-1 receptor (rΔNt) is deleted for exons E1 through exon G (residues 26 to 181). Assuming that signal peptidase cleavage occurs between Ala-22 and Tyr-23 (Nielsen, H., et al., Protein Engineering 10:1–6 (1997)), rΔNt is predicted to have for its N-terminus residues Dautzenberg, F., et al., Proc. Natl. Acad. Sci. 95:4941–4946 (1998); Holtmann, M., et al., J. Biol. Chem. 270:14394–14398 (1995); DeAlmeida, V. and Mayo, K., Mol. Endo. 12:750–765 (1998)) joined to Glu-182 (FIG. 3B). COS-7 cells were transfected in 24-well plates when the cells were 85 to 95% of confluency, using 200 ng of plasmid DNA that was purified by cesium chloride/ethidium bromide gradient centrifugation for each well. Assays were conducted 72 to 96 hours after transfection. Under these conditions about ˜20% of the COS-7 cells become transfected and express about 5×10^6 surface PTH receptors per cell (Bergwitz, C., et al., J. Biol. Chem. 272:28861–28868)).
as §1
(§5) Experiments utilized COS-7 cells transfected with either the intact rat PTH-1 receptor (rWT-HA, FIG. 4A) or a truncated rat PTH-1 receptor with most of the amino-terminal extracellular domain deleted (rΔNt, FIG. 4B).

[3] = system: truncated rat PTH-1 receptor (rΔNt); assay: as above; conditions: COS-7 cells, cAMP
Source text: as §2, §3, §4, §1, §5

T1 sequence (P23811 26-449): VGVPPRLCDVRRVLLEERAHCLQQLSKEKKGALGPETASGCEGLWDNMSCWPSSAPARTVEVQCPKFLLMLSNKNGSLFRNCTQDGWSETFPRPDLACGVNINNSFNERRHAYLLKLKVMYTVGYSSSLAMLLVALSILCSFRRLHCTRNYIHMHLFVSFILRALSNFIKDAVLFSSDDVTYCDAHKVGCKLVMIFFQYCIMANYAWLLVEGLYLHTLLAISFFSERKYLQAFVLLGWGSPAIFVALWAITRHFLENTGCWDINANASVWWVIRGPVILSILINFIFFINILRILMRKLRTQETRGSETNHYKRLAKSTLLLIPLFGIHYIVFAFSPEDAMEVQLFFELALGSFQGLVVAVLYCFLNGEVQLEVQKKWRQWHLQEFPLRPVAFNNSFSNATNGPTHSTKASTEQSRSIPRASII

Compound | cAMP response of secretin receptor cells (in words) [1] | greater potency with rΔNt in comparison to the potency of PTH(1–14) ([2]; COS-7 cells, cAMP) | cAMP response of cells expressing rΔNt (in words) [2] | decrease in potency with rΔNt as compared to potency with rWT-HA [3] | potency relative to PTH(1–34) with rΔNt ([2]; COS-7 cells transfected with rΔNt) | potency/activity with rΔNt compared with rWT-HA (in words) [3]
CCCC[C@H](NC(=O)[C@H](CCCNC(=N)N)NC(=O)[C@H](CCC(=O)O)NC(=O)[C@@H](NC(=O)[C@H](CO)NC(=O)[C@H](C)NC(=O)[C@H](CC(C)C)NC(=O)[C@H](Cc1c[nH]cn1)NC(=O)[C@H](CCCCN)NC(=O)CNC(=O)[C@H](CC(C)C)NC(=O)[C@H](CC(N)=O)NC(=O)[C@H](Cc1c[nH]cn1)NC(=O)[C@H](CCCC)NC(=O)[C@H](CC(C)C)NC(=O)[C@H](CCC(N)=O)NC(=O)[C@@H](NC(=O)[C@H](CCC(=O)O)NC(=O)[C@H](CO)NC(=O)[C@@H](NC(=O)[C@H](C)N)C(C)C)[C@@H](C)CC)C(C)C)C(=O)N[C@@H](CCC(N)=O)C(=O)N[C@@H](Cc1c[nH]c2ccccc12)C(=O)N[C@@H](CC(C)C)C(=O)N[C@@H](CCCNC(=N)N)C(=O)N[C@@H](CCCCN)C(=O)N[C@@H](CCCCN)C(=O)N[C@@H](CC(C)C)C(=O)N[C@@H](CCC(N)=O)C(=O)N[C@@H](CC(=O)O)C(=O)N[C@H](C(=O)N[C@@H](Cc1c[nH]cn1)C(=O)N[C@@H](CC(N)=O)C(=O)N[C@@H](Cc1ccc(O)cc1)C(N)=O)C(C)C [PTH(1–34), [Nle^8,21,Tyr^34]rPTH-(1–34)NH2] | did not respond | 100 fold | responded | 100 fold | – | –
PTH(1–14): Amino-terminal peptide fragment based on the rat PTH sequence, residues 1–14, C-terminally amidated (AVSEIQLMHNLGKH-NH2) | did not respond | – | responded | – | only two orders of magnitude weaker | equipotent with the two receptors; also recorded: equivalent activity; also recorded: not affected
